One experiment concerns the target T1, HDAC7 (Homo sapiens, UniProt Q8WUI4).
T1 sequence (Q8WUI4 1-952): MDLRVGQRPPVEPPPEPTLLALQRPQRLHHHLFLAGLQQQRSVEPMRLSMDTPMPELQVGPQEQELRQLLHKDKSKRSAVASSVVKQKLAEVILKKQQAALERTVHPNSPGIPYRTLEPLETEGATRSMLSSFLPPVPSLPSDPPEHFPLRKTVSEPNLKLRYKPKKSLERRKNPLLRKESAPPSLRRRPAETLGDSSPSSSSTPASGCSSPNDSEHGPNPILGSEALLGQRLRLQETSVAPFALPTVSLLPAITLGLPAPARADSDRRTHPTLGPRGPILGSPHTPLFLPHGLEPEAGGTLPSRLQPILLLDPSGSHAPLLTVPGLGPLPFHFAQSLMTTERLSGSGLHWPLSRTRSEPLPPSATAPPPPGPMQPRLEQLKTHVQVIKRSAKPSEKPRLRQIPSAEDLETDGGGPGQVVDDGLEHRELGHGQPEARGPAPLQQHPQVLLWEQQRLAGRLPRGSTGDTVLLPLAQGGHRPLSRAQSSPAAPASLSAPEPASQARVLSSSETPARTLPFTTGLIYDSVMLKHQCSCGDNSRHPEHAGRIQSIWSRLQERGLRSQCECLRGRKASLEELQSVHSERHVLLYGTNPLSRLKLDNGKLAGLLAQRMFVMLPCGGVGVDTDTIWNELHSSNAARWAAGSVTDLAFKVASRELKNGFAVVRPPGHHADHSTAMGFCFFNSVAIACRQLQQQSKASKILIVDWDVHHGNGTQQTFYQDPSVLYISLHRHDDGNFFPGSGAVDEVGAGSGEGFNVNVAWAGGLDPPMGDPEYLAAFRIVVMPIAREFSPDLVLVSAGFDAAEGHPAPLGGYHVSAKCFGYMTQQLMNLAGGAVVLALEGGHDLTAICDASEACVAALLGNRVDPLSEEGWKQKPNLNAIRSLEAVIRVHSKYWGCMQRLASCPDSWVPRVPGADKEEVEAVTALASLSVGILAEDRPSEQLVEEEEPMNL
In words: HDAC biochemical activity measurement (fluorescent substrate deacetylation).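 Note: fluorogenic deacetylation assay using acetyl-lysine substrate at 20 µM, enzyme and compound incubated 30 min at 37 °C, then developer added, fluorescence read at 360/460 nm.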 Conditions: HDAC7; 37° C. 30 minutes.

Experiment [1] relates to A549 (human lung cancer cells). In words: MTT cancer cell growth inhibition. In kind it is cell-based. Conditions: Homo sapiens, A549, 72 h, MTT, 72 hours incubation, read-out: GI50 A54. A digest of the protocol: (§1)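 Growth inhibition is scored with MTT after three days of compound treatment spanning 10^−5–10^−10 M. Cells are maintained in DMEM or 1640 medium containing 10% FBS and plated at 1500 per well the previous night; absorbance at 570 nm gives viability, from which GI50 is calculated.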

Experiment [2] deals with SGC-7901 (human gastric cancer cells). In words: MTT cancer cell growth inhibition. The format is cell-based. The following applies: Homo sapiens, SGC-7901, 72 h, MTT, 72 hours incubation, SGC-7901 cells; read-out: GI50 SGC-7901. A digest of the protocol: as §1
For experiment [3], the system named is MOLT-4 (human acute lymphoblastic leukemia cells). Kind of experiment: MTT cancer cell growth inhibition. The format is cell-based. The following applies: Homo sapiens, MOLT-4, 72 h, MTT, 72 hours incubation, read-out: GI50 Mol. A digest of the protocol: as §1
Experiment [4] relates to lncap (prostate cancer cells). In words: MTT cancer cell growth inhibition. The format is cell-based. The following applies: Homo sapiens, LNCaP, 72 h, MTT, 72 hours incubation, read-out: GI50 lnca. A digest of the protocol:
as §1

Experiment [5] relates to Bel-7402 (human hepatoma cells). Kind of experiment: MTT cancer cell growth inhibition. In kind it is cell-based. The following applies: Homo sapiens, Bel-7402, 72 h, MTT, 72 hours incubation, Bel-7402 cells; read-out: GI50 Bel-7402. A digest of the protocol:
as §1

In experiment [6] the test system is KBM-5 (human chronic myelogenous leukemia). In words: MTT cancer cell growth inhibition. The format is cell-based. Conditions: Homo sapiens, KBM5, 72 h, MTT, 72 hours incubation, KBM-5 cells; read-out: GI50 KBM-5. The procedure, abridged:
as §1

Experiment [7] deals with DU145 (human prostate cancer cells). In words: MTT cancer cell growth inhibition. The format is cell-based. Conditions: Homo sapiens, DU-145, 72 h, MTT, 72 hours incubation, read-out: GI50 Du1. A digest of the protocol: as §1
Experiment [8] concerns U937 (human leukemia cells). In words: MTT cancer cell growth inhibition. In kind it is cell-based. Conditions: Homo sapiens, U-937, 72 h, MTT, 72 hours incubation, read-out: GI50 U93. The procedure, abridged: as §1
The test system of experiment [9] is MCF-7 (human breast cancer cells). In words: MTT cancer cell growth inhibition. In kind it is cell-based. The following applies: Homo sapiens, MCF7, 72 h, 72 hours incubation, read-out: GI50 MCF. The procedure, abridged: as §1
Experiment [10] deals with PANC-1 (Pac-1, human pancreatic cancer cells). In words: MTT cancer cell growth inhibition. The following applies: Homo sapiens, PANC-1, 72 h, MTT, 72 hours incubation, read-out: GI50 PAN. The format is cell-based. The procedure, abridged:
as §1

Experiment [11] has as its system N-87 (human gastric cancer cells). Kind of experiment: MTT cancer cell growth inhibition. The format is cell-based. Conditions: Homo sapiens, 72 h, MTT, 72 hours incubation, N-87 cells; read-out: GI50 N-87. The procedure, abridged:
as §1

The test system of experiment [12] is H1975 (non-small cell lung adenocarcinoma). In words: MTT cancer cell growth inhibition. In kind it is cell-based. Conditions: Homo sapiens, NCI-H1975, 72 h, MTT, 72 hours incubation, H1975 cells; read-out: GI50 H1975. The procedure, abridged: as §1
In experiment [13] the test system is HT1080 (human fibrosarcoma cells). Kind of experiment: MTT cancer cell growth inhibition. The following applies: Homo sapiens, HT-1080, 72 h, MTT, 72 hours incubation, read-out: GI50 HT1. In kind it is cell-based. The procedure, abridged:
as §1

In experiment [14] the test system is Hela (human cervical cancer cells). Kind of experiment: MTT cancer cell growth inhibition. The format is cell-based. Conditions: Homo sapiens, HeLa, 72 h, MTT, 72 hours incubation, read-out: GI50 Hela. A digest of the protocol: as §1
Experiment [15] concerns KBM5-T315I (human chronic myelogenous leukemia). In words: MTT cancer cell growth inhibition. Conditions: Homo sapiens, 72 h, MTT, 72 hours incubation, KBM5-T315I cells; read-out: GI50 KBM5-T315I. The format is cell-based. The procedure, abridged:
as §1

Experiment [16] relates to Huh-7 (human hepatoma cells). Kind of experiment: MTT cancer cell growth inhibition. The format is cell-based. The following applies: Homo sapiens, Huh-7, 72 h, MTT, 72 hours incubation, Huh-7 cells; read-out: GI50 Huh-7. A digest of the protocol: as §1
Experiment [17] concerns MDA-MB-231 (breast cancer cells). In words: MTT cancer cell growth inhibition. In kind it is cell-based. Conditions: Homo sapiens, MDA-MB-231, 72 h, read-out: GI50 MDA-MB-231, MTT, 72 hours incubation, MDA-MB-231 cells. The procedure, abridged:
as §1

Experiment [18] has as its system HCC827 (human non-small cell lung cancer cells). In words: MTT cancer cell growth inhibition. Conditions: Homo sapiens, HCC827, 72 h, MTT, 72 hours incubation, HCC827 cells; read-out: GI50 HCC827. In kind it is cell-based. A digest of the protocol: as §1
Experiment [19] relates to BGC-823 (human gastric cancer cells). In words: MTT cancer cell growth inhibition. Conditions: Homo sapiens, BGC-823, 72 h, MTT, 72 hours incubation, read-out: GI50 BG. In kind it is cell-based. The procedure, abridged:
as §1

The subject of experiment [20] is K562 (human leukemia cells). In words: MTT cancer cell growth inhibition. In kind it is cell-based. Conditions: Homo sapiens, K562, 72 h, MTT, 72 hours incubation, K562 cells; read-out: GI50 K562. A digest of the protocol: as §1

Read-outs that look alike come from different tables or passages of the source.

Consider `C/C=C1\NC(=O)c2cc(SC)cc(n2)CNC(=O)C[C@@H](/C=C/CCS)OC(=O)[C@H](C)NC1=O` [Compound 233], for which the “IC50 HDAC7” value against HDAC7 was “no activity”. For the same compound, the GI50 is 20 nM in experiment [1] (A549 cells); 51 nM in experiment [2]; 30 nM in experiment [3] (MOLT-4 cells); 20 nM in experiment [4] (lncap cells); 81 nM in experiment [5]; 97 nM in experiment [6]. The GI50 turned out to be 50 nM in experiment [7] (DU145 cells); 80 nM in [8] (U937 cells); 20 nM in [9] (MCF-7 cells); 20 nM in experiment [10] (PANC-1 cells); 35 nM in experiment [11]; 51 nM in [12]. Further, the GI50 came out at 70 nM in [13] (HT1080 cells); 50 nM in experiment [14] (Hela cells); 46 nM in experiment [15]; 41 nM in experiment [16]; 36 nM in experiment [17]; 81 nM in [18]. The GI50 is 60 nM in experiment [19] (BGC-823 cells) and 24 nM in experiment [20].
Regarding `C/C=C1\NC(=O)c2nc(ccc2SC)CNC(=O)C[C@@H](/C=C/CCSC(C)=O)OC(=O)[C@H](CCCCN)NC1=O` [Compound 192], the “IC50 HDAC7” value against HDAC7 was “no activity”. For the same compound, the GI50 in [1] (A549 cells) came out at 90 nM; in experiment [2], 99 nM; in experiment [3] (MOLT-4 cells), 90 nM; in experiment [4] (lncap cells), 20 nM; in experiment [5] it was 54 nM; in [6] it was 21 nM. The GI50 in [7] (DU145 cells) was determined as 80 nM; in experiment [8] (U937 cells), 20 nM; in experiment [9] (MCF-7 cells) it was 50 nM; in [10] (PANC-1 cells), 60 nM; in experiment [11], 32 nM; in [12], 35 nM. Also, the GI50 in experiment [13] (HT1080 cells) was 50 nM; in experiment [14] (Hela cells), 290 nM; in experiment [15], 29 nM; in experiment [16], 71 nM; in experiment [17], 83 nM; in experiment [18], 37 nM. The GI50 in experiment [19] (BGC-823 cells) came out at 70 nM; in experiment [20] it was 23 nM.
Consider `C/C=C1\NC(=O)c2cc(F)cc(n2)CNC(=O)C[C@@H](/C=C/CCS)OC(=O)[C@H](CCCCNC(=O)OCC2c3ccccc3-c3ccccc32)NC1=O` [Compound 121], for which the “IC50 HDAC7” value on HDAC7 was “no activity”. Moreover, the concentration for 50% growth inhibition (GI50) in [1] is 210 nM; in [2] it was 33 nM; in experiment [3], 30 nM; in experiment [4], 110 nM; in [5], 26 nM; in [6], 46 nM. For the same compound, the GI50 in experiment [7] is 30 nM; in [8], 60 nM; in [9] it was 20 nM; in [10], 70 nM; in experiment [11] it was 23 nM; in [12] it was 28 nM. Further, the GI50 in [13] came out at 70 nM; in experiment [14], 50 nM; in experiment [15], 23 nM; in experiment [16], 45 nM; in experiment [17] it was 75 nM; in [18], 42 nM. Also, the values for the GI50 in experiment [19] and in experiment [20] were 190 nM and 38 nM, respectively.
Regarding `C/C=C1\NC(=O)c2nc(ccc2SC)CNC(=O)C[C@@H](/C=C/CCSC(=O)CC)OC(=O)[C@H](C(C)C)NC1=O` [Compound 162], the “IC50 HDAC7” value on HDAC7 is given as “no activity”. For the same compound, the GI50 in experiment [1] (A549 cells) is 90 nM; in [2] it was 78 nM; in experiment [3] (MOLT-4 cells), 70 nM; in experiment [4] (lncap cells), 50 nM; in experiment [5], 35 nM; in experiment [6], 42 nM. Besides, the 50% growth inhibitory concentration (GI50) in [7] (DU145 cells) worked out at 10 nM; in experiment [8] (U937 cells), 50 nM; in experiment [9] (MCF-7 cells), 40 nM; in [10] (PANC-1 cells), 70 nM; in experiment [11], 18 nM; in [12] it was 49 nM. Also, the GI50 in [13] (HT1080 cells) amounted to 70 nM; in [14] (Hela cells) it was 80 nM; in experiment [15], 16 nM; in experiment [16] it was 81 nM; in experiment [17] it was 79 nM; in experiment [18] it was 51 nM. In addition, the GI50 in experiment [19] (BGC-823 cells) was found to be 50 nM; in [20], 73 nM.

The values above are taken from US10065990B2, “Cyclic peptide compound, and preparation method, pharmaceutical composition and use thereof” (HANGZHOU GUANYU BIO-MEDICAL CO., LTD, priority 2013, dated 2018).
